From patent publication US20250179059A1 (The Regents of the University of California, priority 2021, published 2025)
Like-named read-outs stand apart in the source and are kept apart here.

Legend:
[1] = target: T1, human BRD4 bromodomain II (Homo sapiens, UniProt O60885); test: Bromodomain binding assay (AlphaScreen), BRD4 BDII
T1 construct: human BRD4 bromodomain II [based on Genbank NM_058243, residues 349-460]; host or cells: E. coli
In short: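 E. coli-expressed N-terminal His6-tagged human BRD4 BDII (residues 349-460) or BDI (residues 44-170) was preincubated 30 min at room temperature with compound (10-point, 3-fold) in pH 7.5 HEPES buffer, 1% DMSO. Displacement of biotinylated tetra-acetylated H4 1-21 peptide was read by AlphaScreen, and IC50 came from curve fitting.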

[2] = tested on: human SKM-1 acute myeloid leukemia cells; test: SKM-1 antiproliferation cell-based assay (ATPlite); details: Homo sapiens
In short: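 Log-phase cells in RPMI 1640/15% FBS were seeded at 34722 cells/mL and exposed for 4 days to nine-concentration DMSO serial dilutions in triplicate. Viability was read as ATP luminescence (ATPlite 1step), and IC50 values came from variable-slope non-linear regression.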

[3] = AlphaScreen assay, Table C2, read-out: BRD4 BDII IC50
[4] = SKM-1, 96 h, SKM-1 antiproliferation assay, 4 days, Table C2
[5] = BRD4 BDII AlphaScreen assay, read-out: BRD4 BD2 IC50
[6] = SKM-1, SKM-1 antiproliferation assay

With `Cn1ccn(-c2ccc(-c3cc(F)cc(-c4ccnc(-c5ccncc5)c4)c3O)cc2Cl)c1=O` [Example 481, 1-(3′-([2,4′-bipyridin]-4-yl)-3-chloro-5′-fluoro-2′-hydroxy-[1,1′-biphenyl]-4-yl)-3-methyl-1H-imidazol-2(3H)-one] the IC50 [1, 3] was 1 to 10 nM and the GI50 [2, 4] was 300 to 3000 nM.
For `COc1ncc(-c2cc(F)cc(-c3ccc(-n4ccn(C)c4=O)c(F)c3)c2O)cc1N1CCN(C(C)(C)C)CC1` [Example 939, 1-(3′-(5-(4-(tert-butyl)piperazin-1-yl)-6-methoxypyridin-3-yl)-3,5′-difluoro-2′-hydroxy-[1,1′-biphenyl]-4-yl)-3-methyl-1H-imidazol-2(3H)-one], the IC50 [1, 5] was 1 to 10 nM and the GI50 [2, 6] was 0.3 to 30 nM.
`Cn1ccn(-c2ccc(-c3cccc(-c4cccc(N5CCN(C(C)(C)C)CC5)c4)c3O)cc2Cl)c1=O` [Example 1021, 1-(3″-(4-(tert-butyl)piperazin-1-yl)-3-chloro-2′-hydroxy-[1,1′:3′,1″-terphenyl]-4-yl)-3-methyl-1H-imidazol-2(3H)-one] showed an IC50 [1, 5] of 0.01 to 1 nM and a GI50 [2, 6] of 0.3 to 30 nM.
`CN1CCN(c2ccc(-c3cc(F)cc(-c4ccnc(N(C)CCN)c4)c3O)cc2Cl)C1=O` [Example 347, 1-(3′-(2-((2-aminoethyl)(methyl)amino)pyridin-4-yl)-3-chloro-5′-fluoro-2′-hydroxy-[1,1′-biphenyl]-4-yl)-3-methylimidazolidin-2-one] was tested, and the IC50 [1, 3] was 10 to 100 nM and the GI50 [2, 4] was 300 to 3000 nM.
Compound `Cn1ccn(-c2ccc(-c3cc(F)cc(-c4ccnc(N5CCN(CCC6CC6)CC5)c4)c3O)cc2Cl)c1=O` [Example 681, 1-(3-chloro-3′-(2-(4-(2-cyclopropylethyl)piperazin-1-yl)pyridin-4-yl)-5′-fluoro-2′-hydroxy-[1,1′-biphenyl]-4-yl)-3-methyl-1H-imidazol-2(3H)-one] has an IC50 [1, 3] of 0.01 to 1 nM and a GI50 [2, 4] of 0.3 to 30 nM.
With `CC(C)[C@@H]1CN(c2cc(-c3cc(F)cc(-c4ccc(-n5ccn(C)c5=O)c(Cl)c4)c3O)cc3[nH]ncc23)CCN1` [Example 597, (R)-1-(3-chloro-5′-fluoro-2′-hydroxy-3′-(4-(3-isopropylpiperazin-1-yl)-1H-indazol-6-yl)-[1,1′-biphenyl]-4-yl)-3-methyl-1H-imidazol-2(3H)-one] the IC50 [1, 3] was 1 to 10 nM and the GI50 [2, 4] was 0.3 to 30 nM.
With `CN1CCN(c2ccc(-c3cc(C4CC4)cc(-c4ccnc(N5CCNCC5)c4)c3O)cc2Cl)C1=O` [Example 316, 1-(3-chloro-5′-cyclopropyl-2′-hydroxy-3′-(2-(piperazin-1-yl)pyridin-4-yl)-[1,1′-biphenyl]-4-yl)-3-methylimidazolidin-2-one] the IC50 [1, 3] was 1 to 10 nM and the GI50 [2, 4] was 300 to 3000 nM.
For `COC(=O)CC1CN(c2cc(-c3cc(F)cc(-c4ccc(-n5ccn(C)c5=O)c(Cl)c4)c3O)ccn2)CCN1` (centres unmarked) [Example 679, methyl 2-(4-(4-(3′-chloro-5-fluoro-2-hydroxy-4′-(3-methyl-2-oxo-2,3-dihydro-1H-imidazol-1-yl)-[1,1′-biphenyl]-3-yl)pyridin-2-yl)piperazin-2-yl)acetate], the IC50 [1, 3] was 1 to 10 nM and the GI50 [2, 4] was 30 to 300 nM.
Work on `CC(=O)Nc1ccc(-c2cccc(-c3ccnc(C#CCN)c3)c2O)cc1F` [Example 296, N-(3′-(2-(3-aminoprop-1-yn-1-yl)pyridin-4-yl)-3-fluoro-2′-hydroxy-[1,1′-biphenyl]-4-yl)acetamide] yielded an IC50 [1, 3] of 10 to 100 nM and a GI50 [2, 4] of 300 to 3000 nM.
`Cc1ncc(-c2cc(F)cc(-c3ccc(-n4ccn(C)c4=O)c(Cl)c3)c2O)cc1N1CCN(C(C)C)CC1` [Example 722, 1-(3-chloro-5′-fluoro-2′-hydroxy-3′-(5-(4-isopropylpiperazin-1-yl)-6-methylpyridin-3-yl)-[1,1′-biphenyl]-4-yl)-3-methyl-1H-imidazol-2(3H)-one] gave an IC50 [1, 3] of 0.01 to 1 nM and a GI50 [2, 4] of 0.3 to 30 nM.
`Cn1ccn(-c2ccc(-c3cc(F)cc(-c4ccnc(N5CCN(C6CCC6)CC5)c4)c3O)cc2Cl)c1=O` [Example 619, 1-(3-chloro-3′-(2-(4-cyclobutylpiperazin-l-yl)pyridin-4-yl)-5′-fluoro-2′-hydroxy-[1,1′-biphenyl]-4-yl)-3-methyl-1H-imidazol-2(3H)-one] showed an IC50 [1, 3] of 0.01 to 1 nM and a GI50 [2, 4] of 0.3 to 30 nM.
`Cn1cnn(-c2ccc(-c3cc(F)cc(-c4ccnc(N5CCNCC5)c4)c3O)cc2Cl)c1=O` [Example 499, 1-(3-chloro-5′-fluoro-2′-hydroxy-3′-(2-(piperazin-1-yl)pyridin-4-yl)-[1,1′-biphenyl]-4-yl)-^4-methyl-1H-1,2,4-triazol-5(4H)-one] gave an IC50 [1, 3] of 1 to 10 nM and a GI50 [2, 4] of 30 to 300 nM.
`Cn1cc(-c2cc(F)cc(-c3ccc(-n4ccn(C)c4=O)c(Cl)c3)c2O)cc(N2CCC(N)CC2)c1=O` [Example 427, 3-(4-aminopiperidin-1-yl)-5-(3′-chloro-5-fluoro-2-hydroxy-4′-(3-methyl-2-oxo-2,3-dihydro-1H-imidazol-1-yl)-[1,1′-biphenyl]-3-yl)-1-methylpyridin-2(1H)-one] gave an IC50 [1, 3] of 1 to 10 nM and a GI50 [2, 4] of 300 to 3000 nM.
`COc1ncc(-c2nccc(-c3ccc(-n4ccn(C)c4=O)c(Cl)c3)c2O)cc1N1CCN(C(C)(C)C)CC1` [Example 1005, 1-(4-(5′-(4-(tert-butyl)piperazin-1-yl)-3-hydroxy-6′-methoxy-[2,3′-bipyridin]-4-yl)-2-chlorophenyl)-3-methyl-1H-imidazol-2(3H)-one] was tested, and the IC50 [1, 5] was 1 to 10 nM and the GI50 [2, 6] was 0.3 to 30 nM.
`Cn1ccn(-c2c(OC3CC3)ccc(-c3cc(F)cc(-c4cccc(N5CCN(C(C)(C)C)CC5)c4)c3O)c2Cl)c1=O` [Example 931, 1-(3″-(4-(tert-butyl)piperazin-1-yl)-2-chloro-4-cyclopropoxy-5′-fluoro-2′-hydroxy-[1,1′:3′,1″-terphenyl]-3-yl)-3-methyl-1,3-dihydro-2H-imidazol-2-one] gave an IC50 [1, 5] of over 100 nM and a GI50 [2, 6] of 300 to 3000 nM.
With `C[C@@H]1CN(c2cc(-c3cc(F)cc(-c4ccc(-n5ccn(C)c5=O)c(Cl)c4)c3O)cc3[nH]nnc23)CCN1` [Example 536, (R)-1-(3-chloro-5′-fluoro-2′-hydroxy-3′-(4-(3-methylpiperazin-1-yl)-1H-benzo[d][1,2,3]triazol-6-yl)-[1,1′-biphenyl]-4-yl)-3-methyl-1H-imidazol-2(3H)-one] the IC50 [1, 3] was 1 to 10 nM and the GI50 [2, 4] was 0.3 to 30 nM.
`Cn1ccn(-c2ccc(-c3cc(F)cc(-c4cc(F)cc(N5CCNCC5)c4)c3O)cc2Cl)c1=O` [Example 706, 1-(3-chloro-3″,5′-difluoro-2′-hydroxy-5″-(piperazin-1-yl)-[1,1′:3,1″-terphenyl]-4-yl)-3-methyl-1H-imidazol-2(3H)-one] was tested, and the IC50 [1, 3] was 0.01 to 1 nM and the GI50 [2, 4] was 0.3 to 30 nM.
With `Cc1ncc(-c2cc(F)cc(-c3ccc(-n4ccn(C)c4=O)c(Cl)c3)c2O)cc1N1CC(C)(O)C1` [Example 843, 1-(3-chloro-5′-fluoro-2′-hydroxy-3′-(5-(3-hydroxy-3-methylazetidin-1-yl)-6-methylpyridin-3-yl)-[1,1′-biphenyl]-4-yl)-3-methyl-1H-imidazol-2(3H)-one] the IC50 [1, 3] was 0.01 to 1 nM and the GI50 [2, 4] was 0.3 to 30 nM.
`CN1CCN(c2ccc(-c3cccc(-c4cc(CO)cc(N5CCNCC5)c4)c3O)cc2Cl)C1=O` [Example 355, 1-(3-chloro-2′-hydroxy-3″-(hydroxymethyl)-5″-(piperazin-1-yl)-[1,1′:3′,1″-terphenyl]-4-yl)-3-methylimidazolidin-2-one] gave an IC50 [1, 3] of 1 to 10 nM and a GI50 [2, 4] of 30 to 300 nM.
